Data set [1] concerns caspases 3/7. The class given is cell-based, human.
For data set [2], the system named is caspases 3/7. The class given is cell-based, human. This is another data set of the same source.
The subject of data set [3] is primary human lung microvascular endothelial cells (MVE).
For data set [4] the test system is unchanged. This is another data set of the same source.
For data set [5], the system named is primary human lung fibroblasts (FB).
The test system of data set [6] is MERS-CoV. The class given is cell-based.
Data set [7] has as its system MERS-CoV. The format is cell-based. This is another data set of the same source.
Data set [8] relates to primary human lung fibroblasts (FB). This is another data set of the same source.

Where two headings read alike, the source gives them in different places.

On to `Cc1ccc2cc(-c3c(C)ccc(C(=O)c4c(-c5ccccc5)n(C)n(-c5ccccc5)c4=O)c3N)ccc2n1` [AMG PERK 44], for which the “caspase 3/7 activation above untreated infected cells” value with caspases 3/7 [1] and in the data set on caspases 3/7 [2] was “No significant dose responsive change in caspase 3/7 activation above untreated infected cells” in each case. The “cytotoxicity (CellTiter-Glo cell viability)” value in data set [3] was “dose dependent increase in cytotoxicity”.

In the case of `C[C@H](CCC(=O)O)C[C@H](C)C[C@H](C)C(=O)/C=C(\O)[C@H](C)C[C@H](C)C/C=C/[C@@H](C)[C@@H](O)[C@@H](C)[C@@H](O)C[C@@H]1CC[C@@](C)([C@H]2CC[C@@](C)([C@@H](C)O)O2)O1` [ionomycin], the “caspase 3/7 activation” value with caspases 3/7 [1] and in the data set on caspases 3/7 [2] was “did not induce caspase 3/7 activation” throughout. Moreover, the cell viability entry in data set [4] and in data set [5] was “diminished cell viability” in each case.

`CN[C@@H]1C[C@H]2O[C@@](C)([C@@H]1OC)n1c3ccccc3c3c4c(c5c6ccccc6n2c5c31)C(=O)NC4` [staurosporine]: the “caspase 3/7 activation” value with caspases 3/7 [1] and in the data set on caspases 3/7 [2] was “significantly induced caspase 3/7 activation” in each case. For the same compound, the cell viability entry in data set [4] and in data set [5] was “diminished cell viability” each time.

For the compound `O=C(COc1ccc(Cl)cc1)NC1CCC(NC(=O)COc2ccc(Cl)cc2)CC1` (stereo not drawn) [trans-ISRIB], the “MERS-CoV replication (nanoluciferase expression)” value in the data set with MERS-CoV [6] and in the data set on MERS-CoV [7] was “did not alter MERS-CoV replication in either infected MVE or FB” each time. For the same compound, the “cytotoxicity (CellTiter-Glo cell viability)” value in data set [3] and in data set [8] was “not cytotoxic at any dose tested” throughout.

The values are drawn from US20230137667A1, “METHODS AND COMPOSITIONS FOR TREATMENT OF CORONAVIRUS INFECTION” (priority 2020, published 2023).
